The text below walks through data of publication PMC5620277, “The histone methyltransferase EZH2 as a druggable target in SHH medulloblastoma cancer stem cells” (Oncotarget, 2017).

Data set [1] is described as follows: PAMPA-BBB (porcine brain lipid extract artificial membrane). It counts as in vitro ADME. The conditions noted are these: for Papp at 24 h: Pe in cm/s, pH 7.4, 24 h, room temperature, triplicate, read-out: Log Pe (converted). How it is done: Donor solution (500 μM or 250 μM) was prepared by diluting 10 or 5 mM DMSO compound stock solution using phosphate buffer (pH 7.4, 0.01 M). Filter membrane was coated with 5 μl of BBB-specific lipid solution prepared dissolving 16 mg of PBL (Avanti Lipids Polar, 141101P) in 600 μl of n-dodecane. Donor solution (150 μl) was added to each well of the filter plate. To each well of the acceptor plate 300 μl of solution (5% DMSO in phosphate buffer) were added. Each compound was tested in triplicate. The sandwich was incubated for 24 h at room temperature under gentle shaking. After the incubation time, the sandwich plates were separated and 250 μl of the acceptor plate were transferred to a UV quartz microtiter plate and measured by UV spectroscopy, using a Multiskan GO microplate spectrophotometer (Thermo Scientific) at 250−500 nm at step of 5 nm. Reference solutions (250 μl) were prepared diluting the sample stock solutions to the same concentration as that with no membrane barrier. The BBB permeability value Log Pe is determined applying the equation:
log Pe= log{C⋅(−ln(1−[drug]acceptor/[drug]equilibrium))},
where C=(VD⋅VA/(VD+VA)area⋅time)
In this equation, VA is the volume of the acceptor compartment (0.3 cm^3), VD is the donor volume (0.15 cm^3), area is the accessible filter area (0.24 cm^2), and time is the incubation time in seconds.

In data set [2] the test system is DAOY-SLCs. The experiment in a line: Cell viability, MTS assay, DAOY-SLCs. The following applies: 5 μM, after 72 h. It is filed as cell-based. How it is done:
(§1) To evaluate cell viability cells were plated at a density of 5×10^3 cells/well in 96-well plates and were incubated with MTS solution (CellTiter 96® AQueous One Solution Promega).

In a further data set the test system is DAOY cells. Description: Western Blot of H3K27me3 and PCNA in DAOY cells. It counts as cell-based. The conditions noted are these: 5 μM, 48 h. How it is done: as §1
(§2) Western blots were performed according to standard procedures. Briefly, protein lysates were prepared using RIPA buffer with fresh protease inhibitors. Lysates were separated on SDS polyacrylamide gels. Proteins were transferred on nitrocellulose membrane (0.45 micron) (PerkinElmer). Membranes were blocked for 1 h at room temperature in 5% nonfat dry milk and incubated overnight at 4°C with antibodies against EZH2 (4905S Cell signaling), H3K27me3 (07-449 Millipore), PCNA (2586 Cell signaling), ACTIN (I-19 sc-1616; Santa Cruz Biotechnology), GAPDH (ab9484, Abcam), cleaved CSP-3 (D-175 9661S; Cell Signaling) and H3 (ab1971, Abcam). HRP-conjugated secondary antibodies (Santa Cruz Biotechnology) were used in combination with enhanced chemiluminescence (ECL Amersham).

Data set [3] deals with mMB-SLCs. Description: Western Blot of H3K27me3, PCNA, cleaved caspase 3 in mMB-SLCs. It is filed as cell-based, mouse. The following applies: mMB-SLCs, 5 μM, 48 h. The protocol: Afterwards, we tested the ability of MC3629 (at 0.5, 5, and 25 μM) to inhibit the EZH2 enzymatic activity on a cell-based assay in vitro. The lower significant MC3629 dosage to decrease the H3K27me3 level in MB-SLCs was 5 μM (Figure 2C).
as §1, §2

The subject of data set [4] is hMB-SLCs. The experiment in a line: Self-renewal, clonogenic assay, hMB-SLCs. It is filed as cell-based, human. The following applies: 5 μM. How it is done:
(§3) For self-renewal assessment, clonogenic assay was performed as previously described. Briefly: oncospheres were disaggregated with non-enzymatic cell dissociation buffer (Sigma) and cells were plated at clonal density (1-2 cells/mm^2) into 96-well plates and cultured for an appropriate number of days (7-15) until oncospheres were countable.

In data set [5] the test system is hMB-SLCs. The experiment in a line: Western Blot of H3K27me3, PCNA, cleaved caspase 3 in hMB-SLCs. It is filed as cell-based, human. The following applies: 5 μM, 48 h. How it is done: as §1, §2
In data set [6] the test system is mMB-SLCs. The experiment in a line: Self-renewal, clonogenic assay, mMB-SLCs. It is filed as cell-based, mouse. The conditions noted are these: 5 μM. The protocol: as §3
Data set [7] has as its system DAOY-SLCs. The experiment in a line: Western Blot of H3K27me3 and PCNA in DAOY-SLCs. The following applies: 5 μM, 48 h. It counts as cell-based. The protocol: as §1, §2

Molecules are shown by their SMILES.

Consider `CC(C)NCC(O)COc1cccc2ccccc12` (stereo not shown) [propranolol], for which the Papp at 24 h in data set [1] is 6.17 ×10⁻⁶ cm/s.

As to `CC[C@H](C)n1cc(C)c2c(C(=O)NCc3c(C)cc(C)[nH]c3=O)cc(-c3ccc(N4CCNCC4)nc3)cc21` [GSK2816126, reference compound], the Papp at 24 h in data set [1] is 3.89 ×10⁻⁶ cm/s. For the same molecule, in data set [1] (respect to propranolol), the “Δ Log Pe” value was −0.20. Also, the cell viability entry with DAOY-SLCs [2] is on record as “significantly impair”. Further, the “H3K27me3 and PCNA levels” value in the data set with DAOY cells is “impaired only by MC3629”; in the data set with DAOY-SLCs [7], “down modulated”. The “H3K27me3 and PCNA protein levels” value in the data set on mMB-SLCs [3] and in the data set on hMB-SLCs [5] was “significantly impaired” throughout. Further, the self-renewal entry in the data set with hMB-SLCs [4] and with mMB-SLCs [6] was “significantly reduced” in each case.
